Where a name gives a salt, the structure may show the parent alone.
How the values were obtained:
ABCA8 [1] = biological target: T1, ABCA8 (Homo sapiens, UniProt O94911); assay: uptake of various isotope-labeled compounds into oocytes; assay type: cell-based
T1 construct: expressed in transfected cells; host or cells: Xenopus oocytes (stage V) microinjected with capped cRNA
Protocol: (§1) The cultured oocytes (n=10 to 20) were mixed with 2 to 3 ml of a medium and an isotope-labeled compound, and the mixture was then placed in a small incubator. Small amounts of the cells were serially sampled. Each oocyte was washed with a fresh MBS 3 times, and it was then dissolved in a 10% SDS solution at room temperature for 30 minutes. As such an isotope-labeled compound, ^14C-estradiol-β-glucuronide that is a model probe for MRP (multidrug resistance associated protein), a member of an ABC transporter family, was used. Subsequently, a scintillation cocktail (ACS2, manufactured by Amersham) was added thereto, and then, a radioactivity taken into the oocyte was measured with a liquid scintillation counter (LSC-3500, manufactured by Aloka).
Subsequently, the uptake of various isotope-labeled compounds into cells was measured. Measurement was carried out in the same manner as in Example 1 with the exception that the following compounds were used. • LTC4 (leukotriene C4): a substrate for MRP (an additive amount: 20 μM) • Taurocholic acid: a substrate for OAT (an additive amount: 100 μM) • TEA (tetraethylammonium): a substrate for OCT (an additive amount: 10 nM) • Digoxin: a substrate for MDR (an additive amount: 100 nM) • Doxorubicin: a substrate for MDR (an additive amount: 100 μg/ml) • PAH (para-aminohippuric acid): a substrate for MRP and OAT (an additive amount: 1 mM)

ABCA8 [2] = biological target: T1, ABCA8; assay: inhibition test of the uptake of 14C-estradiol-β-glucuronide into oocytes by various compounds; assay type: cell-based; conditions: for uptake of 14C-estradiol-β-glucuronide decreased to: inhibitor additive amount 10 μM
Protocol: An inhibition test was carried out on the protein encoded by a DNA comprising the nucleotide sequence represented by SEQ ID NO: 2. In the test, in the above described determination of the uptake of ^14C-estradiol-β-glucuronide, various types of compounds were previously added to a reaction medium, so as to examine whether or not the uptake of ^14C-estradiol-β-glucuronide was inhibited by the compounds.

ABCA8 [3] = biological target: T1, ABCA8; assay: uptake of 3H-indoxyl sulfate into oocytes and its inhibition by probenecid; assay type: cell-based
Protocol: as §1
(§2) The same procedure was carried out as in Example 1 with the exception that ^3H-labeled indoxyl sulfate, one of the urinary toxins, was isotope-labeled with ^3H was used as a compound in a concentration of 2 μM. At the same time, a system to which probenecid was added in a concentration of 1 mM, and a system to which water was added instead of cRNA, were also subjected to the same test.

ABCA8 [4] = biological target: T1, ABCA8; assay: uptake of 14C-estradiol-β-glucuronide into Xenopus oocytes injected with cRNA of the drug transporter; assay type: cell-based
Protocol: A mature female Xenopus purchased from Hamamatsu Animal was bred under normal conditions. Thereafter, stage V oocytes were selected therefrom, and the cells were incubated in a modified Barth's solution (MBS) containing 88 mM NaCl, 1 mM KCl, 2.4 mM NaHCO3, 15 mM Tris-Cl, 0.3 mM CaNO3, 0.82 mM MgSO4, 0.41 mM CaCl2, 10 μg/ml penicillin and 10 μg/ml streptomycin. Thereafter, cRNA was prepared by a known method using a DNA having the nucleotide sequence represented by SEQ ID NO: 1, and an aqueous solution containing the obtained cRNA was injected into the mature Xenopus oocytes by microinjection. For such microinjection, cRNA whose 5′-terminus was capped or 50 nl of water was injected into the oocytes in vitro, using an automatic injector (IM200J, Narishige, Japan). The thus injected oocytes were cultured at 17° C. for 3 days in MBS, while exchanging the medium with a new one every day. 3 days after the culture, the oocytes expressed a drug transporter.
The used cRNA was obtained by […] of cDNA from Kazusa DNA Research Institute, which has been cloned as one of full-length cDNAs obtained from human brain and has been deposited with NCBI (National Center for Biotechnology Information, USA) under accession No. AB020629.
as §1
In this case, the concentration of ^14C-estradiol-β-glucuronide in the medium was 37 nM. […]

ABCA8 [5] = biological target: T1, ABCA8; assay: ATP dependency of the uptake of 14C-estradiol-β-glucuronide into oocytes; assay type: cell-based; conditions: ATP added, up to 5 mM
Protocol: A protein encoded by a DNA comprising the nucleotide sequence represented by SEQ ID NO: 2has an ATP-binding cassette. Thus, a test was made to see ATP dependency of the uptake of ^14C-estradiol-β-glucuronide. In the test, ATP was added in the above determination of the uptake of ^14C-estradiol-[…], and the same operation was then carried out to determine the uptake of ^14C-estradiol-β-glucuronide.

[6] = substrate: O=S(=O)(O)Oc1c[nH]c2ccccc12; assay: uptake of 3H-indoxyl sulfate into oocytes and its inhibition by probenecid; assay type: cell-based, human; conditions: other: cRNA-injected oocytes
Protocol: as §1, §2

Molecule: CCCCC/C=C\C\C=C/C=C/C=C/[C@@H](SC[C@H](NC(=O)CC[C@H](N)C(=O)O)C(=O)NCC(=O)O)[C@@H](O)CCCC(=O)O [LTC-4, leukotriene C4]
- uptake of isotope-labeled compound into oocytes (ABCA8 [1]; additive amount 20 μM): taken into oocytes

Molecule: CN(C)C(=O)CCSC(SCCC(=O)O)c1cccc(/C=C/c2ccc3ccc(Cl)cc3n2)c1 (centres unmarked) [MK-571]
- uptake of 14C-estradiol-β-glucuronide decreased to (ABCA8 [2]): approximately 30%

Molecule: O=C(C(c1ccccc1)c1ccccc1)N1CCN(CC(O)COc2cccc3ncccc23)CC1 (centres unmarked) [MS-209]
- uptake of 14C-estradiol-β-glucuronide decreased to (ABCA8 [2]): approximately 30%

Molecule: Nc1ccc(C(=O)NCC(=O)O)cc1 [PAH, para-aminohippuric acid]
- uptake of isotope-labeled compound into oocytes (ABCA8 [1]; additive amount 1 mM): taken into oocytes

Molecule: CC[N+](CC)(CC)CC [TEA, tetraethylammonium]
- uptake of isotope-labeled compound into oocytes (ABCA8 [1]; additive amount 10 nM): does not have a function to transport

Molecule: O=S(=O)(O)Oc1c[nH]c2ccccc12 [^3H-indoxyl sulfate, indoxyl sulfate]
- Vmax of uptake (ABCA8 [3]; cRNA-injected oocytes): 5.5 pmol/hr/egg
- uptake of 3H-indoxyl sulfate into oocytes, time course (ABCA8 [3]; cRNA-injected oocytes, 2 μM): linearly increased with time

Molecule: CN/C(=N/CCSCc1nc[nH]c1C)NC#N [cimetidine, Cimetidine]
- inhibitory effect on uptake of 14C-estradiol-β-glucuronide (ABCA8 [2]; additive amount 1 mM): no inhibitory effect

Molecule: C[C@H]1O[C@@H](O[C@H]2[C@@H](O)C[C@H](O[C@H]3[C@@H](O)C[C@H](O[C@H]4CC[C@@]5(C)[C@H](CC[C@@H]6[C@@H]5C[C@@H](O)[C@]5(C)[C@@H](C7=CC(=O)OC7)CC[C@]65O)C4)O[C@@H]3C)O[C@@H]2C)C[C@H](O)[C@@H]1O [digoxin, Digoxin]
- uptake of isotope-labeled compound into oocytes (ABCA8 [1]; additive amount 100 nM): excreted therefrom (or its original uptake was inhibited)
- inhibitory effect on uptake of 14C-estradiol-β-glucuronide (ABCA8 [2]; additive amount 0.25 mM): small extent of inhibitory effect

Molecule: COc1cccc2c1C(=O)c1c(O)c3c(c(O)c1C2=O)C[C@@](O)(C(=O)CO)C[C@@H]3O[C@H]1C[C@H](N)[C@H](O)[C@H](C)O1 [doxorubicin, Doxorubicin]
- uptake of isotope-labeled compound into oocytes (ABCA8 [1]; additive amount 100 μg/ml): does not have a function to transport

Molecule: C[C@@H]1Cc2c(Cl)cc(C(=O)N[C@@H](Cc3ccccc3)C(=O)O)c(O)c2C(=O)O1 [ochratoxin A, Ochratoxin A]
- inhibitory effect on uptake of 14C-estradiol-β-glucuronide (ABCA8 [2]; additive amount 50 μM): inhibitory effect

Molecule: CCCN(CCC)S(=O)(=O)c1ccc(C(=O)O)cc1 [probenecid, Probenecid]
- inhibitory effect on uptake of 14C-estradiol-β-glucuronide (ABCA8 [2]; additive amount 1 mM): small extent of inhibitory effect
- effect on uptake of 3H-indoxyl sulfate into the cells (ABCA8 [3]; probenecid 1 mM, 3H-indoxyl sulfate 2 μM): decreased

Molecule: C[C@H](CCC(=O)NCCS(=O)(=O)O)[C@H]1CC[C@H]2[C@@H]3[C@H](O)C[C@@H]4C[C@H](O)CC[C@]4(C)[C@H]3C[C@H](O)[C@]12C [taurocholic acid, Taurocholic acid]
- uptake of isotope-labeled compound into oocytes (ABCA8 [1]; additive amount 100 μM): taken into oocytes

Molecule: ^14C-estradiol-β-glucuronide
- intake of 14C-estradiol-β-glucuronide into the cells (ABCA8 [4]; 37 nM in the medium, about 60 minutes): 138±5.5 fmol/hr/egg
- Km (ABCA8 [4]; Michaelis-Menten): 30.4 µM
- Vmax of uptake (ABCA8 [4]; Michaelis-Menten): 8.37 pmol/hr/egg
- influence of ATP concentration on uptake into the cells (ABCA8 [5]): increased with the increase of ATP concentration

B1: ABCA8 (Homo sapiens) (protein)
chain: MRKRKISVCQQTWALLCKNFLKKWRMKRESLMEWLNSLLLLLCLYIYPHSHQVNDFSSLLTMDLGRVDTFNESRFSVVYTPVTNTTQQIMNKVASTPFLAGKEVLGLPDEESIKEFTANYPEEIVRVTFTNTYSYHLKFLLGHGMPAKKEHKDHTAHCYETNEDVYCEVSVFWKEGFVALQAAINAAIIEITTNHSVMEELMSVTGKNMKMHSFIGQSGVITDLYLFSCIISFSSFIYYASVNVTRERKRMKALMTMMGLRDSAFWLSWGLLYAGFIFIMALFLALVIRSTQFIILSGFMVVFSLFLLYGLSLVALAFLMSILVKKSFLTGLVVFLLTVFWGCLGFTSLYRHLPASLEWILSLLSPFAFMLGMAQLLHLDYDLNSNAFPHPSDGSNLIVATNFMLAFDTCLYLALAIYFEKILPNEYGHRRPPLFFLKSSFWSQTQKTDHVALEDEMDADPSFHDSFEQAPPEFQGKEAIRIRNVTKEYKGKPDKIEALKDLVFDIYEGQITAILGHSGAGKSTLLNILSGLSVPTKGSVTIYNNKLSEMADLENLSKLTGVCPQSNVQFDFLTVRENLRLFAKIKGILPQEVDKEIFLLDEPTAGLDPFSRHQVWNLLKERKTDRVILFSTQFMDEADILADRKVFLSQGKLKCAGSSLFLKKKWGIGYHLSLQLNEICVEENITSLVKQHIPDAKLSAKSEGKLIYTLPLERTNKFPELYKDLDSYPDLGIENYGVSMTTLNEVFLKLEGKSTINESDIAILGEVQAEKADDTERLVEMEQVLSSLNKMRKTIGGVALWRQQICAIARVRLLKLKHERKALLALLLILMAGFCPLLVEYTMVKIYQNSYTWELSPHLYFLAPGQQPHDPLTQLLIINKTGASIDDFIQSVEHQNIALEVDAFGTRNGTDDPSYNGAITVCCNEKNYSFSLACNAKRLNCFPVLMDIVSNGLLGMVKPSVHIRTERSTFLENGQDNPIGFLAYIMFWLVLTSSCPPYIAMSSIDDYKNRARSQLRISGLSPSAYWFGQALVDVSLYFLVFVFIYLMSYISNFEDMLLTIIHIIQIPCAVGYSFSLIFMTYVISFIFRKGRKNSGIWSFCFYVVTVFSVAGFAFSIFESDIPFIFTFLIPPATMIGCLFLSSHLLFSSLFSEERMDVQPFLVFLIPFLHFIIFLFTLRCLEWKFGKKSMRKDPFFRISPRSSDVCQNPEEPEGEDEDVQMERVRTANALNSTNFDEKPVIIASCLRKEYAGKRKGCFSKRKNKIATRNVSFCVRKGEVLGLLGHNGAGKSTSIKVITGDTKPTAGQVLLKGSGGGDALEFLGYCPQENALWPNLTVRQHLEVYAAVKGLRKGDAEVAITRLVDALKLQDQLKSPVKTLSEGIKRKLCFVLSILGNPSVVLLDEPSTGMDPEGQQQMWQAIRATFRNTERGALLTTHYMAEAEAVCDRVAIMVSGRLRCIGSIQHLKSKFGKDYLLEMKVKNLAQVEPLHAEILRLFPQAARQERYSSLMVYKLPVEDVQPLAQAFFKLEKVKQSFDLEEYSLSQSTLEQVFLELSKEQELGDFEEDFDPSVKWKLLPQEEP
notes: expressed in transfected cells; host or cells: Xenopus oocytes (stage V) microinjected with capped cRNA
- Km [6]: 25.5 µM
